In patent US8268838B2, “Substituted purinyl-pyrazole derivatives and their use as potassium channel modulators” (Neurosearch A/S, priority 2008, dated 2012):

Target: T1, hSK3 channels (Homo sapiens, UniProt Q9UGI6)
T1 construct: expressed in transfected cells; host or cells: HEK293
Experiment: Whole-cell patch-clamp recording of ionic current through SK channels (subtype 3) in HEK293 cells expressing hSK3
Assay type: cell-based
Description: The ionic current through small-conductance Ca^2+-activated K^+ channels (SK channels, subtype 3) is recorded using the whole-cell configuration of the patch-clamp technique in a classic patch-clamp set-up using HEK293 tissue culture cells expressing hSK3 channels as described in e.g. WO 2006/100212.
The SC100 value determined is defined as the Stimulating Concentration required for increasing the baseline current by 100%. The SC100 value determined for Compound 6.5 of the invention was 0.3 μM, which is an indication of its SK3 activating properties.

SC100 (Stimulating Concentration required for increasing the baseline current by 100%): 0.3 µM
Structure (SMILES): Cc1cc(C)n(-c2nc(N(C(=O)OCC(C)C)c3ccc(Cl)cc3)c3ncn(C)c3n2)n1 [Compound 6.5, (4-Chloro-Phenyl)-[2-(3,5-Dimethyl-Pyrazol-1-yl)-9-Methyl-9H-Purin-6-yl]-Carbamic Acid Isobutyl Ester]
